Experiment [1] deals with T1, Peroxisome proliferator-activated receptor alpha (Homo sapiens) (UniProt Q07869).
T1 sequence (whole entry): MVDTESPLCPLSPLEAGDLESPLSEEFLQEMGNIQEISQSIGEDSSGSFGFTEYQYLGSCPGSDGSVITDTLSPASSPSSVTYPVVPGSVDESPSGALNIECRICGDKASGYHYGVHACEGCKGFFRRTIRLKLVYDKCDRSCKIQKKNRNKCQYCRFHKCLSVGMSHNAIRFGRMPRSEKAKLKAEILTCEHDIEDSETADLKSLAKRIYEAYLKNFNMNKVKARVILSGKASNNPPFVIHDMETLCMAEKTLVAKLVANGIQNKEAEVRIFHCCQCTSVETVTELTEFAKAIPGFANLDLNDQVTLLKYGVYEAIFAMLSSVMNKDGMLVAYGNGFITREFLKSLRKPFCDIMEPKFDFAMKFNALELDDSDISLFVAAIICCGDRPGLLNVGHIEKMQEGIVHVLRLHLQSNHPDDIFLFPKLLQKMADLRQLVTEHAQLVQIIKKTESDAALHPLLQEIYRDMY
As to the kind of experiment: Transactivation of PPARalpha expressed in human HepG2 cells assessed as Sult2a1 expression at 10 uM by luciferase reporter gene assay relative to vehicle-treated control. It counts as cell-based.

The target in experiment [2] is T2, Peroxisome proliferator-activated receptor gamma (Homo sapiens) (UniProt P37231).
T2 sequence (whole entry): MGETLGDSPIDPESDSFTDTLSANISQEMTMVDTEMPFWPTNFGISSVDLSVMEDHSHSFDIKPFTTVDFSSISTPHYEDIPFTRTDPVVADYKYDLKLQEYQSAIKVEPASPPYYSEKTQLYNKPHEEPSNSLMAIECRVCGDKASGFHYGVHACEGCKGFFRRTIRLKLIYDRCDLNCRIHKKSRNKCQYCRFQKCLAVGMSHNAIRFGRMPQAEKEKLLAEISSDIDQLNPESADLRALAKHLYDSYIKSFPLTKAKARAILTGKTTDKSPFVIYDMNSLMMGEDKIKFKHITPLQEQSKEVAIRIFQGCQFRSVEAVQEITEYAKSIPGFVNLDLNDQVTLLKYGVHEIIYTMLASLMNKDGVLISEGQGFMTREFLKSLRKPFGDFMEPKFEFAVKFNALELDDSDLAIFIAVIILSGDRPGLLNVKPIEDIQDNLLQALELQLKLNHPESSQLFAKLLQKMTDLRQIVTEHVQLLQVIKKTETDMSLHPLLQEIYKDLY
Put plainly: Agonist activity at human PPARgamma expressed in human HEK293 cells assessed as ABCA1 promoter transactivation at 10 uM by luciferase reporter gene assay relative to vehicle-treated control. It counts as functional, cell-based. In general terms: A reporter such as luciferase makes a cellular process visible.

Experiment [3] concerns the target T2, Peroxisome proliferator-activated receptor gamma (Homo sapiens). As to the kind of experiment: Agonist activity at human PPARgamma expressed in human HEK293 cells assessed as ABCA1 promoter transactivation at 1 uM by luciferase reporter gene assay relative to vehicle-treated control. It counts as functional, cell-based.
For experiment [4] the target is unchanged. Put plainly: Agonist activity at human PPARgamma expressed in human HEK293 cells assessed as SHP promoter transactivation by luciferase reporter gene assay relative to vehicle-treated control. It counts as functional, cell-based.
The target is the same in experiment [5]. Put plainly: Agonist activity at human PPARgamma expressed in human HEK293 cells assessed as ABCA1 promoter transactivation by luciferase reporter gene assay relative to vehicle-treated control. It counts as functional, cell-based.
For experiment [6], the target named is T3, Peroxisome proliferator-activated receptor gamma (Homo sapiens, UniProt P37231).
T3 sequence (P37231 whole entry): T2 sequence (whole entry)
As to the kind of experiment: Inhibition of fluormone binding to human PPARgamma LBD after 2 hrs by competitive fluorescence polarization assay. A general note: Fluorescence polarisation rises when a labelled molecule tumbles more slowly, as on binding a larger partner.

Experiment [7] deals with T1, Peroxisome proliferator-activated receptor alpha (Homo sapiens). As to the kind of experiment: Transactivation of PPARalpha expressed in human HepG2 cells assessed as Sult2a1 expression at 100 nM by luciferase reporter gene assay relative to vehicle-treated control. It counts as cell-based.
The target in experiment [8] is T2, Peroxisome proliferator-activated receptor gamma (Homo sapiens). Put plainly: Agonist activity at human PPARgamma expressed in human HEK293 cells assessed as SHP promoter transactivation at 10 uM by luciferase reporter gene assay relative to vehicle-treated control. It counts as functional, cell-based.
The target is the same in experiment [9]. Put plainly: Agonist activity at human PPARgamma expressed in human HEK293 cells assessed as SHP promoter transactivation at 1 uM by luciferase reporter gene assay relative to vehicle-treated control. It counts as functional, cell-based.
For experiment [10] the target is unchanged. As to the kind of experiment: Agonist activity at human PPARgamma expressed in human HEK293 cells at 10 uM by luciferase reporter gene assay relative to vehicle-treated control. It counts as functional, cell-based.
Experiment [11] has the same target. To be noted: HEK293.
Description: Agonist activity at human PPARgamma expressed in human HEK293 cells assessed as ABCA1 promoter transactivation at 100 nM by luciferase reporter gene assay relative to vehicle-treated control

The results in this text go back to ChEMBL document CHEMBL2163343, “Sesquiterpene lactones from Tithonia diversifolia act as peroxisome proliferator-activated receptor agonists” (Bioorg Med Chem Lett, 2012).

In the case of `CCOC(=O)C(C)(C)Oc1ccc(Cl)cc1`, the RLU in [1] came out at 2.44.
`C=C1C(=O)O[C@@H]2C[C@H](C)[C@@]3(O)C[C@H](O)[C@@](C)(C[C@@H](OC(=O)C(C)C)[C@@H]12)O3` [TAGITININ A]: the RLU worked out at 2.9 in [2]; 2.1 in experiment [3]; 1.4 in experiment [7]; 3.5 in experiment [8]; 2.8 in experiment [9]; 1.5 in experiment [10]. Also, the RLU in [1] stood at 2.47. Also, the Activity result in experiment [4] and in experiment [5] was “Dose-dependent effect” in each case. In experiment [6], this compound showed an IC50 of 55 µM.
Take `C=C1C(=O)O[C@@H]2C[C@H](C)[C@@]3(O)CC[C@@](C)(C[C@@H](OC(=O)C(C)C)[C@@H]12)O3` [TIROTUNDIN]: the RLU in experiment [2] came to 3.1; in experiment [3] it was 2.1; in experiment [11], 1.6; in [7], 1.4; in experiment [8], 3.4; in experiment [10], 2. Besides, in experiment [1], the RLU stood at 2.33. For the same compound, the Activity result in [4] and in experiment [5] was “Dose-dependent effect” each time. In [6], the IC50 is 27 µM.

What is called IC50 is the point on the concentration scale where inhibition reaches its midpoint.
